Measured values from PubChem BioAssay AID2060336 (Molecular Pharmacology Branch, DTP, NCI, 2025).
Where “and” joins values, the source holds several entries; their conditions need not be identical. Equal entries are not always repeated. One block for each molecule: values may come before it.

Tested on: 958767-090-R-J1-PDC spheroid growth
Assay: Anticancer human tumor 958767-090-R-J1-PDC patient-derived head and neck squamous carcinoma cell line growth inhibition [IpAb]
Settings: spheroids with HUVEC and MSC; for viability, T/C: stronger effect = lower value
Summary of the method: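 Combinations with ipatasertib or abemaciclib were tested on tumour spheroids holding HUVEC (25%) and MSC (15%) alongside 60% malignant cells. Top concentration was at or near clinical Cmax (10 microM if undefined), descending in half-log steps.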

[1] = curve of first compound, second compound 0.01 µM
[2] = curve of first compound, second compound 0.0316 µM
[3] = curve of first compound, second compound 0.1 µM
[4] = curve of first compound, second compound 0.316 µM
[5] = curve of first compound, second compound 1 µM
[6] = second compound 0.01 µM, first compound 0.0316 µM
[7] = second compound 0.01 µM, first compound 0.1 µM
[8] = second compound 0.01 µM, first compound 0.316 µM
[9] = second compound 0.01 µM, first compound 1 µM
[10] = second compound 0.01 µM, first compound 3.16 µM
[11] = second compound 0.01 µM, first compound 10 µM
[12] = second compound 0.0316 µM, first compound 0.0316 µM
[13] = second compound 0.0316 µM, first compound 0.1 µM
[14] = second compound 0.0316 µM, first compound 0.316 µM
[15] = second compound 0.0316 µM, first compound 1 µM
[16] = second compound 0.0316 µM, first compound 3.16 µM
[17] = second compound 0.0316 µM, first compound 10 µM
[18] = second compound 0.1 µM, first compound 0.0316 µM
[19] = second compound 0.1 µM, first compound 0.1 µM
[20] = second compound 0.1 µM, first compound 0.316 µM
[21] = second compound 0.1 µM, first compound 1 µM
[22] = second compound 0.1 µM, first compound 3.16 µM
[23] = second compound 0.1 µM, first compound 10 µM
[24] = second compound 0.316 µM, first compound 0.0316 µM
[25] = second compound 0.316 µM, first compound 0.1 µM
[26] = second compound 0.316 µM, first compound 0.316 µM
[27] = second compound 0.316 µM, first compound 1 µM
[28] = second compound 0.316 µM, first compound 3.16 µM
[29] = second compound 0.316 µM, first compound 10 µM
[30] = second compound 1 µM, first compound 0.0316 µM
[31] = second compound 1 µM, first compound 0.1 µM
[32] = second compound 1 µM, first compound 0.316 µM
[33] = second compound 1 µM, first compound 1 µM
[34] = second compound 1 µM, first compound 3.16 µM
[35] = second compound 1 µM, first compound 10 µM
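Also: spheroids exposed to agents for 7 days.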
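For viability, T/C in this document: 100% = DMSO vehicle control wells.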

SMILES: C=CCn1c(=O)c2cnc(Nc3ccc(N4CCN(C)CC4)cc3)nc2n1-c1cccc(C(C)(C)O)n1 + CCN1CCN(Cc2ccc(Nc3ncc(F)c(-c4cc(F)c5nc(C)n(C(C)C)c5c4)n3)nc2)CC1
- IC50 [1]: 237 nM
- IC50 [2]: 250 nM
- IC50 [3]: 338 nM
- IC50 [4]: 203 nM
- IC50 [5]: 994 nM
- viability, T/C [6]: 83.8%
- viability, T/C [7]: 69.3%
- viability, T/C [8]: 43%
- viability, T/C [9]: 29%
- viability, T/C [10]: 26.7%
- viability, T/C [11]: 21.3%
- viability, T/C [12]: 79.6%
- viability, T/C [13]: 67.3%
- viability, T/C [14]: 42.9%
- viability, T/C [15]: 34.7%
- viability, T/C [16]: 25%
- viability, T/C [17]: 21.5%
- viability, T/C [18]: 65.6%
- viability, T/C [19]: 64%
- viability, T/C [20]: 47.1%
- viability, T/C [21]: 40.1%
- viability, T/C [22]: 31.9%
- viability, T/C [23]: 19.7%
- viability, T/C [24]: 65%
- viability, T/C [25]: 47.1%
- viability, T/C [26]: 44.1%
- viability, T/C [27]: 46.7%
- viability, T/C [28]: 33.2%
- viability, T/C [29]: 21.5%
- viability, T/C [30]: 77.3%
- viability, T/C [31]: 68.2%
- viability, T/C [32]: 52.3%
- viability, T/C [33]: 55%
- viability, T/C [34]: 42.8%
- viability, T/C [35]: 34.3%

- IC50 (curve of compound): 1540 nM and 837 nM
SMILES: Cn1ncc(Cl)c1-c1cc(C(=O)NC(CN)Cc2cccc(F)c2)sc1Cl (centres undefined)
- viability, T/C (compound 0.0316 µM): 81.8% and 95%
- viability, T/C (compound 0.1 µM): 73.2% and 88.4%
- viability, T/C (compound 0.316 µM): 68.2% and 60.5%
- viability, T/C (compound 1 µM): 57.1% and 44.8%
- viability, T/C (compound 3.16 µM): 39% and 31.4%
- viability, T/C (compound 10 µM): 0.18% and 0.23%

- IC50 (curve of compound): 28.4 nM and 43.7 nM
SMILES: Cn1cnc2c(F)c(Nc3ccc(Br)cc3Cl)c(C(=O)NOCCO)cc21
- viability, T/C (compound 0.00949 µM): 73% and 64.2%
- viability, T/C (compound 0.03 µM): 48.8% and 52.3%
- viability, T/C (compound 0.0949 µM): 32.5% and 42.5%
- viability, T/C (compound 0.3 µM): 30.8% and 35.8%
- viability, T/C (compound 0.949 µM): 31% and 28.7%
- viability, T/C (compound 3 µM): 17.2% and 19.8%

SMILES: CCCS(=O)(=O)Nc1ccc(F)c(C(=O)c2c[nH]c3ncc(-c4ccc(Cl)cc4)cc23)c1F + CCN1CCN(Cc2ccc(Nc3ncc(F)c(-c4cc(F)c5nc(C)n(C(C)C)c5c4)n3)nc2)CC1
- IC50 [1]: > 10000 nM
- IC50 [2]: 9200 nM
- IC50 [3]: 8260 nM
- IC50 [4]: > 10000 nM
- IC50 [5]: > 10000 nM
- viability, T/C [6]: 93.1%
- viability, T/C [7]: 93.6%
- viability, T/C [8]: 91.4%
- viability, T/C [9]: 93.7%
- viability, T/C [10]: 87.7%
- viability, T/C [11]: 60.2%
- viability, T/C [12]: 88.5%
- viability, T/C [13]: 93.2%
- viability, T/C [14]: 92.1%
- viability, T/C [15]: 73.6%
- viability, T/C [16]: 62%
- viability, T/C [17]: 48.3%
- viability, T/C [18]: 83.3%
- viability, T/C [19]: 82%
- viability, T/C [20]: 82.9%
- viability, T/C [21]: 70.8%
- viability, T/C [22]: 71.7%
- viability, T/C [23]: 45.6%
- viability, T/C [24]: 66.1%
- viability, T/C [25]: 54.8%
- viability, T/C [26]: 56.7%
- viability, T/C [27]: 67.8%
- viability, T/C [28]: 67.1%
- viability, T/C [29]: 44.4%
- viability, T/C [30]: 89.5%
- viability, T/C [31]: 78.6%
- viability, T/C [32]: 74.9%
- viability, T/C [33]: 79.5%
- viability, T/C [34]: 69.5%
- viability, T/C [35]: 51.9%

- IC50 (compound alone, run of 06/01/2021): > 1000 nM
SMILES: CCN1CCN(Cc2ccc(Nc3ncc(F)c(-c4cc(F)c5nc(C)n(C(C)C)c5c4)n3)nc2)CC1
- viability, T/C (compound 0.1 µM): 63.6% [middle of 13 runs]
- viability, T/C (compound 1 µM): 80.7% [middle of 12 runs]

SMILES: CC(C)NCC(C(=O)N1CCN(c2ncnc3c2C(C)CC3O)CC1)c1ccc(Cl)cc1 (centres undefined)
- viability, T/C (compound 0.1 µM): 90.6% [middle of 13 runs]
- viability, T/C (compound 1 µM): 50.7% [middle of 13 runs]

SMILES: Cn1ncnc1[C@H]1c2n[nH]c(=O)c3cc(F)cc(c23)N[C@@H]1c1ccc(F)cc1 + CCN1CCN(Cc2ccc(Nc3ncc(F)c(-c4cc(F)c5nc(C)n(C(C)C)c5c4)n3)nc2)CC1
- IC50 [1]: > 100 nM
- IC50 [2]: > 100 nM
- IC50 [3]: > 100 nM
- IC50 [4]: 32.2 nM
- IC50 [5]: > 100 nM
- viability, T/C (second compound 0.01 µM, first compound 0.000316 µM): 90.1%
- viability, T/C (second compound 0.01 µM, first compound 0.001 µM): 93.3%
- viability, T/C (second compound 0.01 µM, first compound 0.00316 µM): 66.3%
- viability, T/C (second compound 0.01 µM, first compound 0.01 µM): 84%
- viability, T/C [6]: 75%
- viability, T/C [7]: 66%
- viability, T/C (second compound 0.0316 µM, first compound 0.000316 µM): 83.6%
- viability, T/C (second compound 0.0316 µM, first compound 0.001 µM): 75.1%
- viability, T/C (second compound 0.0316 µM, first compound 0.00316 µM): 67.8%
- viability, T/C (second compound 0.0316 µM, first compound 0.01 µM): 46.2%
- viability, T/C [12]: 52.8%
- viability, T/C [13]: 67.4%
- viability, T/C (second compound 0.1 µM, first compound 0.000316 µM): 68.8%
- viability, T/C (second compound 0.1 µM, first compound 0.001 µM): 64.6%
- viability, T/C (second compound 0.1 µM, first compound 0.00316 µM): 60.8%
- viability, T/C (second compound 0.1 µM, first compound 0.01 µM): 56.6%
- viability, T/C [18]: 50.2%
- viability, T/C [19]: 59.4%
- viability, T/C (second compound 0.316 µM, first compound 0.000316 µM): 59.2%
- viability, T/C (second compound 0.316 µM, first compound 0.001 µM): 53.8%
- viability, T/C (second compound 0.316 µM, first compound 0.00316 µM): 49.3%
- viability, T/C (second compound 0.316 µM, first compound 0.01 µM): 54%
- viability, T/C [24]: 56.8%
- viability, T/C [25]: 43.4%
- viability, T/C (second compound 1 µM, first compound 0.000316 µM): 70.8%
- viability, T/C (second compound 1 µM, first compound 0.001 µM): 73.7%
- viability, T/C (second compound 1 µM, first compound 0.00316 µM): 70.5%
- viability, T/C (second compound 1 µM, first compound 0.01 µM): 60.2%
- viability, T/C [30]: 56.6%
- viability, T/C [31]: 58.2%
